Test results taken from patent US9750742B2, “Small molecular inhibitors of RAD51 recombinase and methods thereof” (Drexel University, priority 2011, dated 2017).
Entries after “also recorded” stand apart in the source; their conditions may differ.

Experiments:
[1] = system: RAD51; test: Western blotting, RAD51 expression level; format: cell-based, human; conditions: B02 20 μM versus no treatment
Description: The pellets were washed three times with cold PBS and then resuspended in lysis buffer containing 50 mM HEPES, pH 7.5, 50 mM NaCl, 5 mM EDTA, 1% Triton X-100, 50 mM NaF, and 10 mM Na4P2O7, 1 mM PMSF, and proteinase inhibitor cocktail (Roche Applied Science) for 30 min at 4° C. The cell lysates were centrifuged at 16,000×g, for 15 min at 4° C., and then the supernatants were collected and protein concentrations were determined using the Bradford assay. Aliquots containing 50 Ξg of total protein were analyzed by 12% SDS-PAGE. […]
Then, both pCBASce-transfected and untransfected cells were trypsinized and resuspended in DMEM supplemented with 10% FBS, 100 units/ml penicillin and 100 μg/ml streptomycin. […] The supernatants were collected and protein concentrations were determined by the Bradford assay using bovine serum albumin (BSA) as a standard. […] Immunoblot signals were detected using Enhanced Chemiluminescence (ECL) reagent (Pierce). […]

[2] = target: T1, RAD51 (Homo sapiens, UniProt Q06609); test: DNA binding assay (RAD51-ssDNA complexes); format: biochemical; conditions: B02 25 μM, without NaCl challenge
T1 construct: made in house
T1 sequence (Q06609 1-339): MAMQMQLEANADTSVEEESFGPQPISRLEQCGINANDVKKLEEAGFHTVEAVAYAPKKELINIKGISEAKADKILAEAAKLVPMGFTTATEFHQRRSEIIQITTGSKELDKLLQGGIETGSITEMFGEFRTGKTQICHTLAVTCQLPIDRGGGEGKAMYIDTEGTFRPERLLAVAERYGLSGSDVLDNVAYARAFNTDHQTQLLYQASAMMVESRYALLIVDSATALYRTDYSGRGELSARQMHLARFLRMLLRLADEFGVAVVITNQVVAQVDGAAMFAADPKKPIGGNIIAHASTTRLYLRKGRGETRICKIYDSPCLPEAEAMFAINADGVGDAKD
Description: DNA binding assay was performed as described (Bugreev et al., 2005, J. Biol. Chem. 280:26886-95). […] After 10 min, reactions was mixed with 0.2 vol of loading buffer and loaded on 10% polyacrylamide gels (135 V, 20 mA) in 0.5×TBE buffer containing 45 mM Tris borate (pH 8.3) and 0.25 mM EDTA. Gels were quantified using a Storm 840 PhosphorImager.

[3] = target: T1, RAD51; test: D-loop assay for RAD51; format: biochemical; conditions: compounds 100 μM; RAD51 1 μM
Description: When indicated, chemical compounds in question were added in specified concentrations and incubation was continued for 30 min at 37° C. D-loop formation was initiated by addition of supercoiled pUC19 dsDNA (50 μM, nt) and continued for 15 min. Reactions were stopped by addition of SDS to 1% (w/v) and proteinase K to 880 μg ml^−1 followed by incubation for 15 min at 37° C. […] The yield of joint molecules was expressed as a percentage of the total plasmid DNA.
The reaction was deproteinized and analyzed as described above.
IC50 values were calculated using GraphPad Prism V5.0 software and the sigmoidal dose-response function. The data were obtained from three independent repeats of experiments.

[4] = system: RAD51 foci in 293 human embryonic kidney (HEK) cells; test: RAD51 foci formation; format: cell-based
Description: 2×10^5 log phase HEK-GFP cells were seeded in 3.5-cm tissue culture plates on glass coverslips pretreated with 0.01% poly-L-lysine (Sigma) and grown overnight. […] Cells were then exposed to 0.5 Gy IR using a Primus Linear Accelerator (Siemens) at […], 3 Gy/min followed by a 2-h incubation at 37° C. Cells were washed with phosphate-buffered saline (PBS) (8.1 mM Na2HPO4, 1.47 mM KH2PO4, 138 mM NaCl and 2.7 mM KCl, pH 7.4), extracted with PBS containing 0.2% Triton X-100 and 1 mM phenylmethanesulfonylfluoride (PMSF) for 5 min at 4° C., and fixed with PBS supplemented with 3.0% formaldehyde and 2.0% sucrose for 10 min. Cells were permeabilized with PBS containing 0.5% Triton X-100 for 5 min and blocked with PBS containing 3% BSA and 0.05% Tween 20 for 30 min at 23° C. Cells were treated with the polyclonal rabbit RAD51 antibodies (1:500 dilution) (a gift from Dr. Golub, Yale University) in PBS containing 3% BSA and 0.05% Triton X-100 overnight at 4° C., and then with Alexa Fluor 488 donkey antirabbit IgG (H+L) antibodies (1:1000 dilution) (Invitrogen) for 1 h at 23° C. followed by a 5-min staining with 500 ng/ml 4′,6-diamidino-2-phenylindole (DAPI) in PBS containing 0.05% Tween 20. Samples were washed in PBS containing 0.05% Tween 20, mounted in VectaShield™ (Vector Laboratories), and sealed with nail polish. The fluorescence images were obtained using an Olympus IX70 inverted microscope and iVision-Mac™ software (BioVision).

[5] = system: pUC19 supercoiled dsDNA; test: Ethidium bromide displacement assay; format: binding
Description: The fluorescence of the sample was measured using a FlouroMax-3 fluorimeter at an excitation wavelength of 260 nm and an emission wavelength of 546 nm. Then, the small molecule inhibitors were added in increasing concentrations and allowed to equilibrate for 1 min, followed by the fluorescence measurement.

[6] = system: HEK cells; test: Clonogenic survival, HEK cells sensitivity to cisplatin; format: cell-based, human
Description: (§1) Briefly, MEF cells were trypsinized and the appropriate number of cells was replated on 10 cm tissue culture dishes. […] Cells were fixed and stained using staining solution (0.05% crystal violet, 50% methanol in PBS); colonies were counted using an AlphaImager 3400 (Alpha Innotech Inc.). The percent of survival was determined as described (Hall & Giccia, 2005, “Radiobiology for the Radiologist”, 6th Ed., Philadelphia, Pa.: Lippincott Williams & Wilkins, pp. 30-45). The percent of survival obtained from untreated cells was normalized to 100% survival.
To suppress RAD51 expression, HEK cells were transfected with 100 nM RAD51 siRNA (sc-36361; Santa Cruz Biotechnology). Briefly, cells (1×10^6) were seeded in a 3.5-cm tissue culture plate and incubated overnight, then the medium was removed and the cell layer was washed three times with PBS. Transfection was carried out by adding 1 ml transfection solution containing 100 pmol […] siRNA and 10 μl siRNA transfection reagent (sc-29528; Santa Cruz Biotechnology) in Opti-MEM I Reduced-Serum medium (Invitrogen) to each plate. Six to 7 hours after transfection the medium was replaced with fresh DMEM+. Twenty-four, 48, 72, and 96 h after transfection, the RAD51 level was determined using Western blotting. As a specificity control scrambled siRNA (sc-37007; Santa Cruz Biotechnology) was used instead of RAD51 siRNA.

[7] = system: Tp53−/− MEF cells; test: Clonogenic survival assay, Tp53−/− MEF; format: cell-based, mouse
Description: as §1

[8] = target: T1, RAD51; test: Effect on RAD51 oligomerization (gel filtration); conditions: B02 200 μM, RAD51 13.5 μM
Description: The samples were then centrifuged for 15 min at 16,000×g, 4° C. Supernatants were loaded on a Superose 6 10/300 GL column (GE Healthcare) equilibrated with buffer E and eluted with a flow rate of 0.2 ml/min at 4° C. The gel filtration molecular weight marker kit (29-669 kDa, Sigma) was used for column calibration. The 0.3-ml fractions were collected and analyzed by electrophoresis in a 12% SDS-PAGE gel (100 V, 90 min).

O=c1c2ccccc2nc(/C=C/c2cccnc2)n1Cc1ccccc1 [Compound B02, (E)-3-benzyl-2-(2-(pyridin-3-yl)vinyl)quinazolin-4(3H)-one]
expression of RAD51 [1]: comparable | loss of filaments [2]: 20% | Joint Molecules (%) [3]: 6.0 ± 0.5% | inhibition of IR-induced RAD51 foci formation, in words ([4]; B02 20 μM): inhibitory effect was smaller | decrease of average number of RAD51 foci per nucleus ([4]; B02 50 μM): 4.4 fold | decrease of fraction of cells with RAD51 foci ([4]; B02 50 μM): 3.8 fold | fraction of cells with RAD51 foci (≧1 focus) ([4]; B02 50 μM, 0.5 Gy IR, without B02 72±10%): 19±6% | average number of RAD51 foci per nucleus ([4]; B02 50 μM, without B02 53±11): 12±4 | DNA binding, result in words [5]: not to bind DNA | incubation time at which maximal sensitivity was reached ([6]; B02 5 μM, cisplatin 16 μM): 16 h | incubation time required to increase the sensitivity of HEK cells for cisplatin ([6]; B02 5 μM, cisplatin 16 μM): 10 to 12 h | sensitization of HEK cells to cisplatin ([6]; B02 combined with RAD51 siRNA versus each alone): more strongly sensitized | sensitivity to cisDDP (cisplatin) and MMC ([7]; B02 5 μM): more sensitive; also recorded: increased | cellular viability, B02 alone ([7]; up to 5 μM, Tp53−/− MEF): No decrease of cellular viability; also recorded: did not have a substantial effect | RAD51 oligomerization [8]: does not affect RAD51 oligomerization
